Data from patent US10144761B2, “Chiral specific boron-containing compounds and their use in treating cancer or amyloidosis” (HANLIN SCIENTIFIC, INC., priority 2015, dated 2018).
Like-named read-outs stand apart in the source and are kept apart here.

Columns and labels:
[1] = Stability study (three storage/solution conditions, by RP-HPLC); format: physicochemical; set-up: key to Stability, Room Temp Dry / Stability, 30° C./65% Humidity / Stability, 37° C. H2O/pH 7.4: “+” meaning stable; “−” meaning quickly degradable; details: for Stability, Room Temp Dry: room temperature (20° C.) under inert dry gas, determined by RP-HPLC; for Stability, 30° C./65% Humidity: sealed with double bags in stability chamber
Description: Compounds were tested for their stability, under three different conditions (see Table 2), by the following procedures: • 1. Room Temperature and Dry: compounds were left at the room temperature (20° C.) under inert dry gas; • 2. 30° C. and 65% Humidity: compounds sealed with double bags were put into a stability chamber. Temperature was set at 30° C. while the humidity was controlled at 65%. • 3. 37° C. pH=7.4 solution: compounds were dissolved in PBS solution and then the entire solution was submerged under a 37° C. water bath.

MM1.S cells = test: Cell viability assay (MTS assay); format: cell-based
Description: Cell Viability Assay 1. Cell Line
The multiple myeloma cell line MM1.S was obtained from the ATCC.
Eight thousand MM1.S cells per well were seeded in tissue culture-treated 96-well plate (Nunc) and incubated overnight.
Each well had the same DMSO concentration of 0.05%.
The effects of compounds on cell viability were assessed using CellTiter 96®A Queous One solution Reagent (Promega; G3580).
After being treated with various compounds for 72 hrs, cells in the 96-well plate were centrifuged 1000 rpm for 3 minutes, and 180 ul supernatant were removed from each well. Cells were incubated with 20 ul CellTiter 96®A Queous One solution Reagent and put into incubator with 5% CO2. at 37° C. for an additional 4 hrs. The absorbance was measured at 490 nm with Automatic Microplate reader (Infinite M1000 pro, Tecan). […] Four sets of experiments for each drug combinations were carried out. Cell viability (Percentage of Cell Survival) was calculated by the following formula: cell viability (%)=(average absorbance of treated group-average absorbance of blank)/(average absorbance of untreated group−average absorbance of blank)×100%. IC50 values were calculated using Prism software.

[2] = MM1.S cells, 72 hrs treatment, MTS assay
[3] = MM1.S cells, 72 hrs treatment, MTS assay, n=4, read-out: IC50
[4] = dissolved in PBS solution, 37° C. water bath, RP-HPLC
[5] = Homo sapiens, MM1.S, 72 h, MM1.S cells, 72 hrs treatment, MTS assay, n=4, read-out: IC50

Row | Compound | Stability, Room Temp Dry [1] | Cytotoxic effects on MM1.S cells (in words) (MM1.S cells; [2]) | IC50 (MM1.S cells; [3]) | Stability, 37° C. H2O/pH 7.4 [1, 4] | Stability, 30° C./65% Humidity ([1]; RP-HPLC) | IC50 (MM1.S cells; Homo sapiens, MM1.S, 72 h) | IC50 (MM1.S cells; [5]) | Stability, 37° C. H2O/pH 7.4 (result in words) [1, 4]
1 | CC(C)C[C@H](NC(=O)[C@H](Cc1ccccc1)NC(=O)c1cnccn1)B(O)O [HL01-0, [(1R)-3-methyl-1-[[(2S)-1-oxo-3-phenyl-2[(pyrazinylcarbonyl)amino]propyl]amino]butyl] boronic acid, reference compound] | − |  |  |  |  |  |  | 
2 | CC(C)C[C@H](NC(=O)[C@H](Cc1ccccc1)NC(=O)c1cnccn1)B(O)O [Bortezomib, reference compound] |  | strong cytotoxic effects | 1.76 nM |  |  |  |  | 
3 | CC(C)C[C@H](NC(=O)CNC(=O)c1cc(Cl)ccc1Cl)[B-]12OC(=O)C[N+]1(C)CC(=O)O2 (stereo partly drawn) [HL01-15] | + | weaker than the other compounds |  | + | + | 6.85 nM |  | 
4 | CC(C)C[C@H](NC(=O)[C@H](Cc1ccccc1)NC(=O)c1cnccn1)[B-]12OC(=O)C[N+]1(C)CC(=O)O2 (stereo partly drawn) [HL01-11] | + | strong cytotoxic effects | 1.62 nM | + | + |  | ~2 nM | 
5 | CC(C)C[C@H](NC(=O)CNC(=O)c1cc(Cl)ccc1Cl)B(O)O [HL01-17] | + |  |  |  | − |  | 9.45 nM | Decompose Instant
